Tests used:
Test in all cases: relative viability (nuclei count vs DMSO), 5 days (fraction); higher = more cells survive
NCI-H2170 = tested on: NCI-H2170
Summary of the method: (§1)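 Dosing by pin tool came one day after lung cancer cell lines were seeded in 1536-well plates, using either one drug or a fixed anchor-drug dose plus five library-drug doses (not always all listed) in √10 steps. After 5 days, nuclei were counted on 4× images. Relative viability is treated-well nuclei count divided by vehicle-well nuclei count, and values are medians of duplicate plates.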

NCI-H1975 = tested on: NCI-H1975
Summary of the method: as §1

ChaGo-K-1 = tested on: ChaGo-K-1
Summary of the method: as §1

NCI-H441 = tested on: NCI-H441
Summary of the method: as §1

NCI-H23 = tested on: NCI-H23
Summary of the method: as §1

A-427 = tested on: A-427
Summary of the method: as §1

NCI-H596 = tested on: NCI-H596
Summary of the method: as §1

HCC-366 = tested on: HCC-366
Summary of the method: as §1

NCI-H1734 = tested on: NCI-H1734
Summary of the method: as §1

NCI-H1666 = tested on: NCI-H1666
Summary of the method: as §1

H3255 = tested on: H3255
Summary of the method: as §1

PC-3 [JPC-3] = tested on: PC-3 [JPC-3]
Summary of the method: as §1

NCI-H520 = tested on: NCI-H520
Summary of the method: as §1

COR-L 105 = tested on: COR-L 105
Summary of the method: as §1

NCI-H1755 = tested on: NCI-H1755
Summary of the method: as §1

LOU-NH91 = tested on: LOU-NH91
Summary of the method: as §1

EMC-BAC-2 = tested on: EMC-BAC-2
Summary of the method: as §1

SW 900 = tested on: SW 900
Summary of the method: as §1

SK-MES-1 = tested on: SK-MES-1
Summary of the method: as §1

EKVX = tested on: EKVX
Summary of the method: as §1

LK-2 = tested on: LK-2
Summary of the method: as §1

NCI-H1563 = tested on: NCI-H1563
Summary of the method: as §1

Cc1sc2c(c1C)C(c1ccc(Cl)cc1)=N[C@@H](CC(=O)OC(C)(C)C)c1nnc(C)n1-2 [JQ1] + Nc1nc2[nH]cc(CCc3ccc(C(=O)N[C@@H](CCC(=O)O)C(=O)O)cc3)c2c(=O)[nH]1 [Pemetrexed] (partner 0.2 µM)
relative viability (NCI-H2170; first compound 0.04 µM): 0.257 | relative viability (NCI-H2170; first compound 0.1265 µM): 0.263 | relative viability (NCI-H2170; first compound 0.4 µM): 0.248 | relative viability (NCI-H2170; first compound 1.265 µM): 0.238 | relative viability (NCI-H2170; first compound 4 µM): 0.194 | relative viability (NCI-H1975; first compound 0.04 µM): 0.284 | relative viability (NCI-H1975; first compound 0.1265 µM): 0.233 | relative viability (NCI-H1975; first compound 0.4 µM): 0.234 | relative viability (NCI-H1975; first compound 1.265 µM): 0.19 | relative viability (NCI-H1975; first compound 4 µM): 0.173 | relative viability (ChaGo-K-1; first compound 0.04 µM): 0.25 | relative viability (ChaGo-K-1; first compound 0.1265 µM): 0.256 | relative viability (ChaGo-K-1; first compound 0.4 µM): 0.245 | relative viability (ChaGo-K-1; first compound 1.265 µM): 0.252 | relative viability (ChaGo-K-1; first compound 4 µM): 0.243 | relative viability (NCI-H441; first compound 0.04 µM): 0.271 | relative viability (NCI-H441; first compound 0.1265 µM): 0.263 | relative viability (NCI-H441; first compound 0.4 µM): 0.273 | relative viability (NCI-H441; first compound 1.265 µM): 0.213 | relative viability (NCI-H441; first compound 4 µM): 0.186 | relative viability (NCI-H23; first compound 0.04 µM): 0.677 | relative viability (NCI-H23; first compound 0.1265 µM): 0.67 | relative viability (NCI-H23; first compound 0.4 µM): 0.41 | relative viability (NCI-H23; first compound 1.265 µM): 0.208 | relative viability (NCI-H23; first compound 4 µM): 0.171 | relative viability (A-427; first compound 0.04 µM): 0.988 | relative viability (A-427; first compound 0.1265 µM): 0.794 | relative viability (A-427; first compound 0.4 µM): 0.994 | relative viability (A-427; first compound 1.265 µM): 0.914 | relative viability (A-427; first compound 4 µM): 0.639 | relative viability (NCI-H596; first compound 0.04 µM): 0.491 | relative viability (NCI-H596; first compound 0.1265 µM): 0.461 | relative viability (NCI-H596; first compound 0.4 µM): 0.386 | relative viability (NCI-H596; first compound 1.265 µM): 0.335 | relative viability (NCI-H596; first compound 4 µM): 0.367 | relative viability (HCC-366; first compound 0.04 µM): 0.16 | relative viability (HCC-366; first compound 0.4 µM): 0.136 | relative viability (HCC-366; first compound 1.265 µM): 0.13 | relative viability (HCC-366; first compound 4 µM): 0.104 | relative viability (NCI-H1734; first compound 0.04 µM): 0.358 | relative viability (NCI-H1734; first compound 0.1265 µM): 0.347 | relative viability (NCI-H1734; first compound 0.4 µM): 0.327 | relative viability (NCI-H1734; first compound 1.265 µM): 0.342 | relative viability (NCI-H1734; first compound 4 µM): 0.283 | relative viability (NCI-H1666; first compound 0.04 µM): 0.801 | relative viability (NCI-H1666; first compound 0.1265 µM): 0.786 | relative viability (NCI-H1666; first compound 0.4 µM): 0.697 | relative viability (NCI-H1666; first compound 1.265 µM): 0.659 | relative viability (NCI-H1666; first compound 4 µM): 0.602 | relative viability (H3255; first compound 0.04 µM): 0.569 | relative viability (H3255; first compound 0.1265 µM): 0.515 | relative viability (H3255; first compound 0.4 µM): 0.453 | relative viability (H3255; first compound 1.265 µM): 0.364 | relative viability (H3255; first compound 4 µM): 0.3 | relative viability (PC-3 [JPC-3]; first compound 0.04 µM): 1.16 | relative viability (PC-3 [JPC-3]; first compound 0.1265 µM): 1.12 | relative viability (PC-3 [JPC-3]; first compound 0.4 µM): 0.818 | relative viability (PC-3 [JPC-3]; first compound 1.265 µM): 0.751 | relative viability (PC-3 [JPC-3]; first compound 4 µM): 0.374 | relative viability (NCI-H520; first compound 0.04 µM): 0.565 | relative viability (NCI-H520; first compound 0.1265 µM): 0.536 | relative viability (NCI-H520; first compound 0.4 µM): 0.491 | relative viability (NCI-H520; first compound 1.265 µM): 0.307 | relative viability (NCI-H520; first compound 4 µM): 0.195 | relative viability (COR-L 105; first compound 0.04 µM): 0.818 | relative viability (COR-L 105; first compound 0.1265 µM): 0.566 | relative viability (COR-L 105; first compound 0.4 µM): 0.742 | relative viability (COR-L 105; first compound 1.265 µM): 0.385 | relative viability (COR-L 105; first compound 4 µM): 0.413 | relative viability (NCI-H1755; first compound 0.04 µM): 0.444 | relative viability (NCI-H1755; first compound 0.1265 µM): 0.444 | relative viability (NCI-H1755; first compound 0.4 µM): 0.387 | relative viability (NCI-H1755; first compound 1.265 µM): 0.323 | relative viability (NCI-H1755; first compound 4 µM): 0.324 | relative viability (LOU-NH91; first compound 0.04 µM): 0.365 | relative viability (LOU-NH91; first compound 0.1265 µM): 0.387 | relative viability (LOU-NH91; first compound 0.4 µM): 0.354 | relative viability (LOU-NH91; first compound 1.265 µM): 0.334 | relative viability (LOU-NH91; first compound 4 µM): 0.362 | relative viability (EMC-BAC-2; first compound 0.04 µM): 0.437 | relative viability (EMC-BAC-2; first compound 0.1265 µM): 0.369 | relative viability (EMC-BAC-2; first compound 0.4 µM): 0.365 | relative viability (EMC-BAC-2; first compound 1.265 µM): 0.366 | relative viability (EMC-BAC-2; first compound 4 µM): 0.33 | relative viability (SW 900; first compound 0.04 µM): 0.472 | relative viability (SW 900; first compound 0.1265 µM): 0.477 | relative viability (SW 900; first compound 0.4 µM): 0.349 | relative viability (SW 900; first compound 1.265 µM): 0.19 | relative viability (SW 900; first compound 4 µM): 0.195 | relative viability (SK-MES-1; first compound 0.04 µM): 0.967 | relative viability (SK-MES-1; first compound 0.1265 µM): 0.686 | relative viability (SK-MES-1; first compound 0.4 µM): 0.397 | relative viability (SK-MES-1; first compound 1.265 µM): 0.289 | relative viability (SK-MES-1; first compound 4 µM): 0.235 | relative viability (EKVX; first compound 0.04 µM): 0.351 | relative viability (EKVX; first compound 0.1265 µM): 0.396 | relative viability (EKVX; first compound 0.4 µM): 0.304 | relative viability (EKVX; first compound 1.265 µM): 0.362 | relative viability (EKVX; first compound 4 µM): 0.264 | relative viability (LK-2; first compound 0.04 µM): 0.282 | relative viability (LK-2; first compound 0.1265 µM): 0.29 | relative viability (LK-2; first compound 0.4 µM): 0.234 | relative viability (LK-2; first compound 1.265 µM): 0.16 | relative viability (LK-2; first compound 4 µM): 0.158 | relative viability (NCI-H1563; first compound 0.04 µM): 0.698 | relative viability (NCI-H1563; first compound 0.1265 µM): 0.715 | relative viability (NCI-H1563; first compound 0.4 µM): 0.673 | relative viability (NCI-H1563; first compound 1.265 µM): 0.47 | relative viability (NCI-H1563; first compound 4 µM): 0.491
